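A five-concentration, 48-hour dose response in 96-well plates underlies each endpoint, interpolated linearly between surrounding concentrations. TGI: concentration producing complete growth inhibition.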 Where a SMILES comes first, the peptide text is derived from it. The star is where a group is joined. Boc = CC(C)(C)OC(=O)*
What was measured:
Assay in all cases: NCI anticancer screen, dose series, 48 h
[1] = system: UO-31 renal
[2] = system: ACHN renal
[3] = system: SN12C renal
[4] = system: HCT-15 colon
[5] = system: RPMI-8226 leukemia
[6] = system: SNB-19 CNS
[7] = system: UACC-257 melanoma
[8] = system: TK-10 renal
[9] = system: SW-620 colon
[10] = system: EKVX NSCLC
[11] = system: UACC-62 melanoma
[12] = system: CAKI-1 renal
[13] = system: SK-MEL-5 melanoma
[14] = system: NCI-H226 lung
[15] = system: A498 renal
[16] = system: U251 CNS
[17] = system: K-562 leukemia
[18] = system: COLO 205 colon
[19] = system: PC-3 prostate

CCOC(=O)/C(=C\c1ccc(O)c(OC)c1)C(=O)c1ccccc1
TGI [1]: > 51 µM | TGI [2]: 36 µM | TGI [3]: 33.5 µM | TGI [4]: 24.8 µM | TGI [5]: 42.1 µM | TGI [6]: > 45.8 µM | TGI [7]: > 49.7 µM | TGI [8]: > 57.5 µM | TGI [9]: 32.4 µM | TGI [10]: > 53.3 µM | TGI [11]: 28.6 µM | TGI [12]: > 58.7 µM | TGI [13]: 29.8 µM | TGI [14]: > 53 µM | TGI [15]: 39 µM | TGI [16]: 36.2 µM | TGI [17]: > 31.8 µM | TGI [18]: > 69.1 µM

C/C(=N\NS(=O)(=O)c1ccc(C)cc1)C(CN1CCOCC1)C(c1ccccc1)c1c(O)c2ccccc2oc1=O (stereo not given)
TGI [1]: > 100 µM | TGI [2]: > 100 µM | TGI [3]: > 100 µM | TGI [4]: > 100 µM | TGI [5]: > 100 µM | TGI [6]: > 100 µM | TGI [7]: > 100 µM | TGI [8]: > 100 µM | TGI [9]: > 100 µM | TGI [10]: > 100 µM | TGI [11]: > 100 µM | TGI [12]: > 100 µM | TGI [13]: > 100 µM | TGI [14]: > 100 µM | TGI [15]: > 100 µM | TGI [16]: > 100 µM | TGI [17]: > 100 µM | TGI [18]: > 100 µM

Cc1ccc(S(=O)(=O)N2CC3OC(C)(C)OC3C2CO)cc1 (stereo not given)
TGI [2]: > 100 µM | TGI [3]: > 100 µM | TGI [4]: > 100 µM | TGI [5]: > 100 µM | TGI [7]: > 100 µM | TGI [8]: > 100 µM | TGI [9]: > 100 µM | TGI [12]: > 100 µM | TGI [13]: > 100 µM | TGI [14]: > 100 µM | TGI [15]: > 100 µM | TGI [16]: > 100 µM | TGI [17]: > 100 µM | TGI [18]: > 100 µM | TGI [19]: > 100 µM

COc1cc(C2=NN(C)C(c3ccc([N+](=O)[O-])o3)C2)cc(OC)c1OC (stereo not given)
TGI [1]: > 100 µM | TGI [2]: > 100 µM | TGI [3]: > 100 µM | TGI [4]: 32.7 µM | TGI [5]: 31.8 µM | TGI [6]: > 100 µM | TGI [7]: > 100 µM | TGI [8]: > 100 µM | TGI [9]: 30.6 µM | TGI [10]: > 100 µM | TGI [11]: > 100 µM | TGI [12]: > 100 µM | TGI [13]: > 100 µM | TGI [14]: > 100 µM | TGI [15]: > 100 µM | TGI [16]: > 100 µM | TGI [17]: > 100 µM | TGI [18]: > 100 µM

COc1c(Cl)c2c(c(OC)c1OC)-c1ccc(OC)c(=O)c(Cl)c1C(NC(C)=O)CC2 (stereo not given)
TGI [1]: > 100 µM | TGI [2]: > 100 µM | TGI [3]: > 36.4 µM | TGI [4]: 2.38 µM | TGI [5]: 10.3 µM | TGI [6]: > 100 µM | TGI [7]: > 100 µM | TGI [8]: > 100 µM | TGI [9]: > 100 µM | TGI [10]: > 100 µM | TGI [11]: 44.6 µM | TGI [12]: > 100 µM | TGI [14]: 1.59 µM | TGI [15]: 0.413 µM | TGI [16]: 1.15 µM | TGI [17]: > 100 µM | TGI [18]: 0.647 µM

Cc1nc2c(n1CCO)C(=O)c1ccccc1C2=O
TGI [1]: > 100 µM | TGI [2]: > 100 µM | TGI [3]: > 100 µM | TGI [4]: > 100 µM | TGI [6]: > 100 µM | TGI [7]: 34 µM | TGI [8]: > 100 µM | TGI [9]: > 100 µM | TGI [10]: > 100 µM | TGI [11]: 30.9 µM | TGI [13]: 23.4 µM | TGI [14]: > 100 µM | TGI [16]: 91.8 µM | TGI [17]: 58.3 µM | TGI [18]: 41.9 µM

O=S1(=O)OCCOS(=O)(=O)C1I
TGI [1]: > 100 µM | TGI [3]: > 100 µM | TGI [5]: > 100 µM | TGI [6]: > 100 µM | TGI [7]: > 100 µM | TGI [8]: > 100 µM | TGI [9]: > 100 µM | TGI [10]: > 100 µM | TGI [11]: > 100 µM | TGI [12]: > 100 µM | TGI [13]: > 100 µM | TGI [14]: > 100 µM | TGI [15]: > 100 µM | TGI [17]: > 100 µM | TGI [18]: > 100 µM

CC(NC(=O)C(NC(=O)OC(C)(C)C)C(C)C)C(=O)N1CCCC1C(=O)NCC(=O)NC(C(=O)NCC(=O)O)C(C)C (stereo not given) (Boc-VAPGVG-OH; configuration not given here)
TGI [1]: > 100 µM | TGI [2]: > 100 µM | TGI [3]: > 100 µM | TGI [4]: > 100 µM | TGI [5]: > 100 µM | TGI [6]: > 100 µM | TGI [7]: > 100 µM | TGI [8]: > 100 µM | TGI [9]: > 100 µM | TGI [10]: > 100 µM | TGI [11]: > 100 µM | TGI [12]: > 100 µM | TGI [15]: > 100 µM | TGI [16]: > 100 µM | TGI [17]: > 100 µM | TGI [18]: > 100 µM | TGI [19]: > 100 µM

COC(=O)[C@@H]1CN(C(=O)c2ccccc2)C(=O)N1
TGI [1]: > 100 µM | TGI [2]: > 100 µM | TGI [3]: > 100 µM | TGI [5]: > 100 µM | TGI [6]: > 100 µM | TGI [7]: > 100 µM | TGI [8]: > 100 µM | TGI [9]: > 100 µM | TGI [10]: > 100 µM | TGI [11]: > 100 µM | TGI [13]: > 100 µM | TGI [14]: > 100 µM | TGI [15]: > 100 µM | TGI [16]: > 100 µM | TGI [17]: > 100 µM | TGI [19]: > 100 µM

O=C1CCCCC1CN1CCCC1 (stereo not given)
TGI [2]: > 100 µM | TGI [3]: > 100 µM | TGI [4]: > 100 µM | TGI [5]: > 100 µM | TGI [7]: > 100 µM | TGI [8]: > 100 µM | TGI [9]: > 100 µM | TGI [10]: > 100 µM | TGI [13]: > 100 µM | TGI [14]: > 100 µM | TGI [15]: > 100 µM | TGI [16]: > 100 µM | TGI [17]: > 100 µM | TGI [18]: > 100 µM

CC1=NN(c2ccccc2)C(=O)C1=C1SCCS1
TGI [1]: > 100 µM | TGI [2]: > 100 µM | TGI [3]: > 100 µM | TGI [4]: > 59.7 µM | TGI [5]: > 49.5 µM | TGI [6]: > 100 µM | TGI [7]: > 100 µM | TGI [8]: > 100 µM | TGI [9]: > 53.8 µM | TGI [10]: > 100 µM | TGI [11]: > 100 µM | TGI [12]: > 100 µM | TGI [13]: > 100 µM | TGI [14]: > 100 µM | TGI [15]: > 100 µM | TGI [16]: > 90.3 µM | TGI [17]: > 69.1 µM | TGI [18]: > 56.8 µM

CC1CN=C(Nc2ccc(F)cc2F)S1 (stereo not given)
TGI [1]: > 100 µM | TGI [2]: > 100 µM | TGI [3]: > 100 µM | TGI [4]: > 100 µM | TGI [5]: > 100 µM | TGI [6]: > 100 µM | TGI [7]: > 100 µM | TGI [8]: > 100 µM | TGI [9]: > 100 µM | TGI [10]: > 100 µM | TGI [12]: > 100 µM | TGI [13]: > 100 µM | TGI [15]: > 100 µM | TGI [16]: > 100 µM | TGI [17]: > 100 µM | TGI [18]: > 100 µM | TGI [19]: > 100 µM

CN(C)c1ccc(-c2cc(=O)c3cc4c(cc3[nH]2)OCO4)cc1
TGI [1]: > 100 µM | TGI [2]: > 100 µM | TGI [3]: > 100 µM | TGI [4]: > 100 µM | TGI [5]: > 100 µM | TGI [6]: > 100 µM | TGI [7]: > 100 µM | TGI [8]: > 100 µM | TGI [9]: > 100 µM | TGI [10]: > 100 µM | TGI [11]: > 100 µM | TGI [13]: > 100 µM | TGI [14]: > 100 µM | TGI [15]: > 100 µM | TGI [16]: > 100 µM | TGI [17]: > 100 µM | TGI [18]: > 100 µM

COc1ccc(C[C@@H]2Cc3cc(OC)c(OC)cc3CN2C)cc1
TGI [1]: > 100 µM | TGI [2]: > 100 µM | TGI [3]: > 100 µM | TGI [4]: > 100 µM | TGI [5]: > 100 µM | TGI [6]: > 100 µM | TGI [7]: > 100 µM | TGI [8]: > 100 µM | TGI [9]: > 100 µM | TGI [10]: > 100 µM | TGI [12]: > 100 µM | TGI [13]: > 100 µM | TGI [15]: > 100 µM | TGI [16]: > 100 µM | TGI [17]: > 100 µM

Reference: PubChem BioAssay (NCI)
